# Several values for one entry are separate records, joined by “and”; a condition that tells them apart may be missing. Equal values may be shown once.
# Test system: RAW264.7 cells
# Test: Cell viability (XTT assay)
# Format: cell-based
# Details: not given
# Description: Cell Viability. Viability of RAW264.7 cells were performed using Cell Proliferation Kit II (XTT) (Roche Applied Science, Mannheim, Germany, Cat. No. 11465015001) using the manufacturer's instructions. […] Post 24 hours exposure to CFZ, the cells were incubated with the yellow XTT solution (final concentration 0.3 mg/ml) for 4 h. […] An increase in number of living cells directly correlates to the amount of orange formazan formed, as monitored by the solution absorbance at 500 nm (Abs500). The following formula was used to determine viability of drug and inhibitor treated cells using untreated cells (blank) as a control—Cell Viability=(Abs500, treated—Abs700,treated)/(Abs500, blank—Abs700,blank).
row,Molecule,effect on cell viability
1,O=C(O)c1cc([N+](=O)[O-])ccc1NCCCc1ccccc1 [NPPB],no significant effect

# Same assay, conditions: BafA1 alone at 6 nM, n=6
row,Molecule,cell viability
1,"CO/C1=C\C(C)=C\[C@@H](C)[C@@H](O)[C@@H](C)C/C(C)=C/C=C/[C@H](OC)[C@@H]([C@@H](C)[C@@H](O)[C@H](C)[C@@]2(O)C[C@@H](O)[C@H](C)[C@@H](C(C)C)O2)OC1=O [BafA1, bafilomycin A1]",65±25%

# Same assay, conditions: BafA1 alone at 8 nM, n=6
row,Molecule,cell viability
1,"CO/C1=C\C(C)=C\[C@@H](C)[C@@H](O)[C@@H](C)C/C(C)=C/C=C/[C@H](OC)[C@@H]([C@@H](C)[C@@H](O)[C@H](C)[C@@]2(O)C[C@@H](O)[C@H](C)[C@@H](C(C)C)O2)OC1=O [BafA1, bafilomycin A1]",33±6%

# Test system: not given
# Test: not given
# Details: in vivo; cited from earlier work
row,Molecule,Vd
1,COc1cc2nc(N(C)CCCNC(=O)C3CCCO3)nc(N)c2cc1OC (stereo not drawn) [Alfuzosin],3.2 L/kg
2,O=C1CCc2ccc(OCCCCN3CCN(c4cccc(Cl)c4Cl)CC3)cc2N1 [Aripiprazole],4.9 L/kg
3,CC[C@H]1OC(=O)[C@H](C)[C@@H](O[C@H]2C[C@@](C)(OC)[C@@H](O)[C@H](C)O2)[C@H](C)[C@@H](O[C@@H]2O[C@H](C)C[C@H](N(C)C)[C@H]2O)[C@](C)(O)C[C@@H](C)CN(C)[C@H](C)[C@@H](O)[C@]1(C)O [Azithromycin],31 L/kg
4,CC(NC(C)(C)C)C(=O)c1cccc(Cl)c1 (stereo not drawn) [Bupropion],18.6 L/kg
5,O=C1CC2(CCCC2)CC(=O)N1CCCCN1CCN(c2ncccn2)CC1 [Buspirone],5.3 L/kg
6,CCCCCOC(=O)Nc1nc(=O)n([C@@H]2O[C@H](C)[C@@H](O)[C@H]2O)cc1F [Capecitabine],27.27 L/kg
7,Cc1ccc(-c2cc(C(F)(F)F)nn2-c2ccc(S(N)(=O)=O)cc2)cc1 [Celecoxib],6.12 L/kg
8,CCN(CC)CCCC(C)Nc1ccnc2cc(Cl)ccc12 (stereo not drawn) [Chloroquine],196.5 L/kg
9,CN(C)CCC(c1ccc(Cl)cc1)c1ccccn1 (stereo not drawn) [Chlorpheniramine],3.2 L/kg
10,CN(C)CCCN1c2ccccc2Sc2ccc(Cl)cc21 [Chlorpromazine],21 L/kg
11,C[C@@H](NCCCc1cccc(C(F)(F)F)c1)c1cccc2ccccc12 [Cinacalcet],17.6 L/kg
12,O=C1CN=C(c2ccccc2Cl)c2cc([N+](=O)[O-])ccc2N1 [Clonazepam],3.2 L/kg
13,CN1CCN(C2=Nc3cc(Cl)ccc3Nc3ccccc32)CC1 [Clozapine],5.4 L/kg
14,CN(C)CC(c1ccc(O)cc1)C1(O)CCCCC1 (stereo not drawn) [Desvenlafaxine],7.5 L/kg
15,COc1ccc([C@@H]2Sc3ccccc3N(CCN(C)C)C(=O)[C@@H]2OC(C)=O)cc1 [Diltiazem],3.3 L/kg
16,CC(=O)O[C@@]12CO[C@@H]1C[C@H](O)[C@@]1(C)C(=O)[C@H](O)C3=C(C)[C@@H](OC(=O)[C@H](O)[C@@H](NC(=O)OC(C)(C)C)c4ccccc4)C[C@@](O)([C@@H](OC(=O)c4ccccc4)[C@H]21)C3(C)C [Docetaxel],7.27 L/kg
17,CN(C)CCC=C1c2ccccc2COc2ccccc21 [Doxepin],24 L/kg
18,COc1cccc2c1C(=O)c1c(O)c3c(c(O)c1C2=O)C[C@@](O)(C(=O)CO)C[C@@H]3O[C@H]1C[C@H](N)[C@H](O)[C@H](C)O1 [Doxorubicin],682 L/kg
19,CCCCCc1cc(O)c2c(c1)OC(C)(C)[C@@H]1CCC(C)=C[C@@H]21 [Dronabinol],8.9 L/kg
20,CNCC[C@H](Oc1cccc2ccccc12)c1cccs1 [Duloxetine],7 L/kg
21,Nc1nc(=O)n([C@@H]2CS[C@H](CO)O2)cc1F [Emtricitabine],3.5 L/kg
22,O=C(NCC1CCCCN1)c1cc(OCC(F)(F)F)ccc1OCC(F)(F)F (stereo not drawn) [Flecainide],4.9 L/kg

row,Molecule,Vd
1,CNCCC(Oc1ccc(C(F)(F)F)cc1)c1ccccc1 (stereo not drawn) [Fluoxetine],35 L/kg
2,OCCN1CCN(CCCN2c3ccccc3Sc3ccc(C(F)(F)F)cc32)CC1 [Fluphenazine],11 L/kg
3,C[C@]12CC[C@@H]3c4ccc(O)cc4C[C@@H](CCCCCCCCC[S+]([O-])CCCC(F)(F)C(F)(F)F)[C@H]3[C@@H]1CC[C@@H]2O (stereo partly drawn) [Fulvestrant],4.15 L/kg
4,O=C(CCCN1CCC(O)(c2ccc(Cl)cc2)CC1)c1ccc(F)cc1 [Haloperidol],18 L/kg
5,CCN(CCO)CCCC(C)Nc1ccnc2cc(Cl)ccc12 (stereo not drawn) [Hydroxychloroquine],525 L/kg
6,OCCOCCN1CCN(C(c2ccccc2)c2ccc(Cl)cc2)CC1 (stereo not drawn) [Hydroxyzine],19 L/kg and 16 L/kg
7,CCCCCN(C)CCC(O)(P(=O)(O)O)P(=O)(O)O [Ibandronate],5.8 L/kg
8,CC(=O)[C@]1(O)Cc2c(O)c3c(c(O)c2[C@@H](O[C@H]2C[C@H](N)[C@H](O)[C@H](C)O2)C1)C(=O)c1ccccc1C3=O [Idarubicin],24.7 L/kg
9,CC1=C(/C=C/C(C)=C/C=C/C(C)=C\C(=O)O)C(C)(C)CCC1 [Isotretinoin],5 L/kg
10,CCC(C)n1ncn(-c2ccc(N3CCN(c4ccc(OCC5COC(Cn6cncn6)(c6ccc(Cl)cc6Cl)O5)cc4)CC3)cc2)c1=O (stereo not drawn) [Itraconazole],10.7 L/kg
11,OC(c1cc(C(F)(F)F)nc2c(C(F)(F)F)cccc12)C1CCCCN1 (stereo not drawn) [Mefloquine],19 L/kg
12,CC12CC3CC(C)(C1)CC(N)(C3)C2 [Memantine],10.9 L/kg
13,CCOC(=O)C1(c2ccccc2)CCN(C)CC1 [Meperidine],4.4 L/kg
14,CCN(CC)CCNC(=O)c1cc(Cl)c(N)cc1OC [Metoclopramide],3.4 L/kg
15,COCCc1ccc(OCC(O)CNC(C)C)cc1 (stereo not drawn) [Metoprolol],4.2 L/kg
16,CN1CCN2c3ncccc3Cc3ccccc3C2C1 (stereo not drawn) [Mirtazapine],4.5 L/kg
17,O=C1c2c(O)ccc(O)c2C(=O)c2c(NCCNCCO)ccc(NCCNCCO)c21 [Mitoxantrone],90 L/kg
18,COc1c(C)c2c(c(O)c1C/C=C(\C)CCC(=O)O)C(=O)OC2 [Mycophenolate],3.8 L/kg
19,Cc1cn(-c2cc(NC(=O)c3ccc(C)c(Nc4nccc(-c5cccnc5)n4)c3)cc(C(F)(F)F)c2)cn1 [Nilotinib],3.0 L/kg
20,O=[N+]([O-])OCC(CO[N+](=O)[O-])O[N+](=O)[O-] [Nitroglycerin],3.3 L/kg
21,CNCCC=C1c2ccccc2CCc2ccccc21 [Nortriptyline],18 L/kg
22,Cc1nc2n(c(=O)c1CCN1CCC(c3noc4cc(F)ccc34)CC1)CCCC2O (stereo not drawn) [Paliperidone],9.1 L/kg

row,Molecule,Vd
1,Fc1ccc([C@@H]2CCNC[C@H]2COc2ccc3c(c2)OCO3)cc1 [Paroxetine],17 L/kg
2,CC[C@@H]([C@H](C)O)n1ncn(-c2ccc(N3CCN(c4ccc(OC[C@@H]5CO[C@@](Cn6cncn6)(c6ccc(F)cc6F)C5)cc4)CC3)cc2)c1=O [Posaconazole],11.9 L/kg
3,CCCN[C@H]1CCc2nc(N)sc2C1 [Pramipexole],7.3 L/kg
4,O=C(C1CCCCC1)N1CC(=O)N2CCc3ccccc3C2C1 (stereo not drawn) [Praziquantel],9.55 L/kg
5,CC(CN1c2ccccc2Sc2ccccc21)N(C)C (stereo not drawn) [Promethazine],13.4 L/kg
6,CC(C)NCC(O)COc1cccc2ccccc12 (stereo not drawn) [Propranolol],4.3 L/kg
7,OCCOCCN1CCN(C2=Nc3ccccc3Sc3ccccc32)CC1 [Quetiapine],10 L/kg
8,O=C(c1ccc(OCCN2CCCCC2)cc1)c1c(-c2ccc(O)cc2)sc2cc(O)ccc12 [Raloxifene],2348 L/kg
9,CCCN(CCC)CCc1cccc2c1CC(=O)N2 [Ropinirole],7.5 L/kg
10,CO[C@H]1C[C@@H]2CC[C@@H](C)[C@@](O)(O2)C(=O)C(=O)N2CCCC[C@H]2C(=O)O[C@H]([C@H](C)C[C@@H]2CC[C@@H](O)[C@H](OC)C2)CC(=O)[C@H](C)/C=C(\C)[C@@H](O)[C@@H](OC)C(=O)[C@H](C)C[C@H](C)/C=C/C=C/C=C/1C [Sirolimus],12 L/kg
11,O=C(O[C@H]1CN2CCC1CC2)N1CCc2ccccc2[C@@H]1c1ccccc1 [Solifenacin],671 L/kg
12,CC(=O)S[C@@H]1CC2=CC(=O)CC[C@]2(C)[C@H]2CC[C@@]3(C)[C@@H](CC[C@@]34CCC(=O)O4)[C@H]12 [Spironolactone],10 L/kg
13,CCN(CC)CCNC(=O)c1c(C)[nH]c(/C=C2\C(=O)Nc3ccc(F)cc32)c1C [Sunitinib],4 L/kg
14,CC/C(=C(\c1ccccc1)c1ccc(OCCN(C)C)cc1)c1ccccc1 [Tamoxifen],55 L/kg
15,CO[C@H]1C[C@@H]2CC[C@@H](C)[C@@](O)(O2)C(=O)C(=O)N2CCCC[C@H]2C(=O)O[C@H]([C@H](C)C[C@@H]2CC[C@@H](OC(=O)C(C)(CO)CO)[C@H](OC)C2)CC(=O)[C@H](C)/C=C(\C)[C@@H](O)[C@@H](OC)C(=O)[C@H](C)C[C@H](C)/C=C/C=C/C=C/1C [Temsirolimus],3.3 L/kg
16,CN(C)c1cc(NC(=O)CNC(C)(C)C)c(O)c2c1C[C@H]1C[C@H]3[C@H](N(C)C)C(O)=C(C(N)=O)C(=O)[C@@]3(O)C(O)=C1C2=O [Tigecycline],7.2 L/kg
17,CN(C)CCOc1ccc(/C(=C(/CCCl)c2ccccc2)c2ccccc2)cc1 [Toremifene],48.38 L/kg
18,Nc1nc(N)c2nc(-c3ccccc3)c(N)nc2n1 [Triameterene],13.4 L/kg
19,c1cnc2cc3c(cc2n1)[C@@H]1CNC[C@H]3C1 [Varenicline],6.2 L/kg
20,CC[C@]1(O)C[C@H]2CN(CCc3c([nH]c4ccccc34)[C@@](C(=O)OC)(c3cc4c(cc3OC)N(C=O)[C@H]3[C@@](O)(C(=O)OC)[C@H](OC(C)=O)[C@]5(CC)C=CCN6CC[C@]43[C@@H]65)C2)C1 [Vincristine],9.79 L/kg
21,CCC1=C[C@@H]2CN(C1)Cc1c([nH]c3ccccc13)[C@@](C(=O)OC)(c1cc3c(cc1OC)N(C)[C@H]1[C@@](O)(C(=O)OC)[C@H](OC(C)=O)[C@]4(CC)C=CCN5CC[C@]31[C@@H]54)C2 [Vinorelbine],76 L/kg
22,Ivermectin,9.91 L/kg
